B1: Dornase Alfa: recombinant human DNase which decreases the viscoelasticity of mucous (protein, UniProt P24855 23-282, looked up)
Deoxyribonuclease-1: LKIAAFNIQTFGETKMSNATLVSYIVQILSRYDIALVQEVRDSHLTAVGKLLDNLNQDAPDTYHYVVSEPLGRNSYKERYLFVYRPDQVSAVDSYYYDDGCEPCGNDTFNREPAIVRFFSRFTEVREFAIVPLHAAPGDAVAEIDALYDVYLDVQEKWGLEDVMLMGDFNAGCSYVRPSQWSSIRLWTSPTFQWLIPDSADTTATPTHCAYDRIVVAGMLLRGAVVPDSALPFNFQAAYGLSDQLAQAISDHYPVEVMLK

How the values were obtained:
[1] = Case report: diffused essential oils after NAC and Dornase Alfa in a child with RSV, oxygen requirement and atelectasis; assay type: in vivo, human; conditions: for Overall response of oxygen requirement to treatment: summary of the case
Excerpt: They experienced a three day prodrome of upper and lower respiratory symptoms and increasing oxygen requirement treated initially at home. They were admitted to a local hospital 7 days prior to the current admission where they continued to received oxygen and was started on a 7 day antibiotic course despite a positive respiratory direct fluorescent antibody test for RSV. They were discharged home on 3 liters oxygen and persistent left upper lobe atelectasis. They presented to our pediatric intensive care unit (PICU) within 12 hours of discharge with respiratory distress and central cyanosis, pulse oximetry oxygen saturation (spO2) 83% off oxygen, 88% on 3 liters per minute (LPM) oxygen.
Past medical history was significant for titanium rib insertion for restrictive lung disease, metal rods for thoracic scoliosis, hip repair for hip dislocation, and gastric feeding tube placement. Their home medication regimen included a multivitamin, calcium carbonate, and levalbuterol 1 unit dose nebulized every 8 hours. Lasix had been added during the prior hospitalization.
MW was placed on 6 liters humidified, high-flow nasal canula oxygen (NC O2), achieving a spO2 of 93-98%. […] pulmonary toilet regimen consisted of percussor chest physiotherapy every four hours and postural drainage. On day 4 of admission, day 14 of oxygen requirement, nebulized 20% n-acetyl cysteine (NAC) every eight hours was added. Oxygen requirement began to improve over the next 24 hours, weaning to 2 LPM NC O2, but returned to 3 LPM when […] remained persistently below spO2 93%. Nebulized Dornase Alfa 2.5 mg every twelve hours was added on day 7, day 17 of oxygen requirement. Oxygen requirement remained at 3 LPM with frequent desaturations to the mid 80's despite the intensification of mucolytic therapy.
On day 8, the previous treatments were discontinued and the essential oil mixture described in TABLE 1, above, including Lavandula latifolia (spike lavender), Thymus mastichina (Spanish marjoram), Abies balsamea (balsam fir), and Mentha×piperita (peppermint) was nebulized at the parents' request. Three drops were applied to a fibrous filter inserted into the base of a fan diffuser (Fan Fuser, Cinegraph, Inc. Seal Beach, Calif.). The mixture was diffused every six hours into the room and passively inhaled by MW. Oxygen requirement was reduced to 1.5 LPM within 12 hours. […] MW was weaned to ¼ LPM NC O2 on the second day of use wand discharged home with an spO2 of 97%, on day 10 of admission, day 20 of oxygen requirement.

[2] = asthmatics, double-blind randomized control trial; cited from earlier work

Molecule | Oxygen requirement returned to ([1]; on NAC, when they remained persistently below spO2 93%) [LPM] | Oxygen requirement (NC O2) ([1]; over the next 24 hours after adding nebulized 20% NAC every eight hours, from 6 liters high-flow) [LPM] | Overall response of oxygen requirement to treatment [1] | Steroid-sparing effect [2] | Desaturations (spO2) ([1]; frequent desaturations despite intensified mucolytic therapy (NAC plus Dornase Alfa)) | Oxygen requirement ([1]; nebulized 2.5 mg every twelve hours added on day 7, on top of NAC) [LPM]
CC(=O)N[C@@H](CS)C(=O)O [n-acetyl cysteine (NAC), N-Acetyl Cysteine] | 3 | 2 | insufficient or worsening response |  |  | 
CC12CCC(CC1)C(C)(C)O2 [eucalyptol, 1,8 cineole] |  |  |  | steroid-sparing effects |  | 
B1 |  |  | insufficient or worsening response |  | mid 80's | 3

Reference: patent US20090169487A1, “Essential Oil Diffusion” (priority 2007, published 2009)
